Measurements published in the NIST ThermoML archive (doi:10.1021/acs.jced.7b01091).

Conditions: Liquid; for vapor or sublimation pressure: Closed cell (Static) method; for mass density: 101.33 kPa, Vibrating tube method

ClCCCl [1,2-dichloroethane]
Conditions	mass density [kg/m3]	vapor or sublimation pressure [kPa]
284.87 K	–	5.38
294.83 K	–	8.97
294.84 K	–	8.96
298.15 K	1245.68	10.53
304.82 K	–	14.34
314.81 K	–	22.19
314.83 K	–	22.18
324.83 K	–	33.27
334.82 K	–	48.47
344.81 K	–	67.97
354.89 K	–	94.96

C1COCCO1 [1,4-dioxane]
Conditions	mass density [kg/m3]	vapor or sublimation pressure [kPa]
284.59 K	–	2.23
294.82 K	–	3.92
298.15 K	1027.87	4.68
304.81 K	–	6.58
314.76 K	–	10.54
324.92 K	–	16.71
334.92 K	–	25.52
344.89 K	–	37.55
354.92 K	–	54.11

C1CCOCC1 [tetrahydropyran]
Conditions	mass density [kg/m3]	vapor or sublimation pressure [kPa]
275.59 K	–	2.85
285.53 K	–	4.91
295.42 K	–	8.07
298.15 K	879.16	9.25
305.37 K	–	12.85
315.36 K	–	19.9
325.65 K	–	29.99
335.6 K	–	43.81
345.59 K	–	61.17
355.49 K	–	84.29

C1COCO1 [1,3-dioxolane]
Conditions	mass density [kg/m3]	vapor or sublimation pressure [kPa]
275 K	–	3.86
284.94 K	–	6.74
294.82 K	–	11.33
298.15 K	1058.76	13.31
304.79 K	–	18.26
314.76 K	–	28.28
324.9 K	–	43.07
334.85 K	–	62.99
344.82 K	–	89.85
350.77 K	–	109.39
